Each block holds one compound with its values, some of them ahead of it. Calls of active or inactive are those of the source. No cut-off for these calls is given here.
Key:
MRC5 = assay: Cytotoxicity against human MRC5 cells assessed as reduction in cell survival after 72 hrs by MTT assay; type: cell-based; conditions: MRC5, 72 h
A549 [1] = assay: Cytotoxicity against human A549 cells assessed as reduction in cell survival after 72 hrs by MTT assay; type: functional, cell-based; conditions: A549, 72 h
HeLa [2] = assay: Cytotoxicity against human HeLa cells assessed as reduction in cell survival after 72 hrs by MTT assay; type: functional, cell-based
[3] = Cytotoxicity against human LS174 cells assessed as reduction in cell survival after 72 hrs by MTT assay; type: functional, cell-based; conditions: LS174, 72 h
A549 [4] = assay: Induction of caspase-3 activation in human A549 cells assessed as increase in spectrin cleavage product level at cytotoxic IC50 level after 24 hrs by Western blotting method; type: functional, cell-based
Bos taurus [5] = species: Bos taurus; assay: Displacement of Hoechst 33258 from calf thymus DNA at 30 to 60 uM by spectroscopy
Calf thymus DNA [6] = assay: Binding affinity to calf thymus DNA assessed as hyperchromism at 20 to 60 uM by spectroscopy; type: nucleic-acid assay; conditions: Bos taurus
HeLa [7] = assay: Induction of cell cycle arrest in human HeLa cells assessed as accumulation at S phase at cytotoxic IC50 level after 24 hrs by propidium iodide staining based flow cytometry (reference value: 14.5%); type: functional
Escherichia coli [8] = assay: Induction of DNA cleavage of Escherichia coli pUC19 at 2 mM by agarose gel elctrophoresis method
A549 [9] = assay: Induction of apoptosis in human A549 cells assessed as caspase-3 activation at cytotoxic IC50 level after 24 hrs by Western blotting method; type: functional, cell-based
HeLa [10] = assay: Induction of cell cycle arrest in human HeLa cells assessed as accumulation at subG1 phase at cytotoxic IC50 level after 24 hrs by propidium iodide staining based flow cytometry (reference value: 2.53%); type: functional
HeLa [11] = assay: Induction of cell cycle arrest in human HeLa cells assessed as accumulation at G1 phase at 2 times cytotoxic IC50 level after 24 hrs by propidium iodide staining based flow cytometry (reference value: 51.33%); type: functional
A549 [12] = assay: Induction of apoptosis in human A549 cells assessed as increase in p18 Bax level at cytotoxic IC50 level after 24 hrs by Western blotting method; type: functional, cell-based
HeLa [13] = assay: Induction of caspase-3 activation in human HeLa cells assessed as increase in spectrin cleavage product level at cytotoxic IC50 level after 24 hrs by Western blotting method; type: functional, cell-based
HeLa [14] = assay: Induction of cell cycle arrest in human HeLa cells assessed as accumulation at G1 phase at cytotoxic IC50 level after 24 hrs by propidium iodide staining based flow cytometry (reference value: 51.33%); type: functional
Bos taurus [15] = species: Bos taurus; assay: Displacement of ethidium bromide from calf thymus DNA at 30 to 60 uM by spectroscopy
HeLa [16] = assay: Induction of cell cycle arrest in human HeLa cells assessed as accumulation at S phase at 2 times cytotoxic IC50 level after 24 hrs by propidium iodide staining based flow cytometry (reference value: 14.5%); type: functional
HeLa [17] = assay: Induction of cell cycle arrest in human HeLa cells assessed as accumulation at subG1 phase at 2 times cytotoxic IC50 level after 24 hrs by propidium iodide staining based flow cytometry (reference value: 2.53%); type: functional
HeLa [18] = assay: Induction of cell cycle arrest in human HeLa cells assessed as accumulation at G2/M phase at 2 times cytotoxic IC50 level after 24 hrs by propidium iodide staining based flow cytometry (reference value: 24.77%); type: functional
Bos taurus [19] = species: Bos taurus; assay: Displacement of Hoechst 33258 from calf thymus DNA at 30 to 60 uM by spectroscopy relative to control
Calf thymus DNA [20] = assay: Binding affinity to calf thymus DNA assessed as binding constant at 20 to 60 uM by spectroscopy; type: nucleic-acid assay; conditions: Bos taurus
HeLa [21] = assay: Induction of apoptosis in human HeLa cells assessed as increase in p18 Bax level at cytotoxic IC50 level after 24 hrs by Western blotting method; type: functional, cell-based
HeLa [22] = assay: Induction of apoptosis in human HeLa cells assessed as caspase-3 activation at cytotoxic IC50 level after 24 hrs by Western blotting method; type: functional, cell-based
HeLa [23] = assay: Induction of cell cycle arrest in human HeLa cells assessed as accumulation at G2/M phase at cytotoxic IC50 level after 24 hrs by propidium iodide staining based flow cytometry (reference value: 24.77%); type: functional
Escherichia coli [24] = assay: Inhibition of Fe(2+)-induced DNA cleavage of Escherichia coli pUC19 at 1:1 compound to iron ratio by agarose gel elctrophoresis method
Escherichia coli [25] = assay: Inhibition of Fe(2+)-induced DNA cleavage of Escherichia coli pUC19 at 1:2 compound to iron ratio by agarose gel elctrophoresis method

Structure (SMILES): Cc1ccccc1/C=C/C(=O)c1cccc2c1C(=O)c1ccccc1C2=O
IC50 (MRC5): 48.6 µM
IC50 (A549 [1]): 44.6 µM
IC50 (HeLa [2]): 12.1 µM
IC50 [3]: 45.2 µM

inhibition (Bos taurus [5]): Dose-dependent effect
Activity (Calf thymus DNA [6]): Active
Activity (Escherichia coli [8]): inactive
Activity (Bos taurus [15]): inactive
Imax (Bos taurus [19]): 41%
Kb (Calf thymus DNA [20]): 2.51 ×10³ /M
Structure (SMILES): O=C(/C=C/c1ccc(/C=C/C(=O)c2cccc3c2C(=O)c2ccccc2C3=O)cc1)c1ccccc1[N+](=O)[O-]
IC50 (MRC5): 48.8 µM
Activity (A549 [4]): Active
Activity (HeLa [7]): 17.66%
Activity (A549 [9]): Active
IC50 (A549 [1]): 28.8 µM
IC50 (HeLa [2]): 2.73 µM
Activity (HeLa [10]): 4.65%
Activity (HeLa [11]): 35.58%
Activity (A549 [12]): inactive
Activity (HeLa [13]): Active
Activity (HeLa [14]): 41.5%
Activity (HeLa [16]): 25.39%
Activity (HeLa [17]): 5.14%
IC50 [3]: 6.44 µM
Activity (HeLa [18]): 34.15%
Activity (HeLa [21]): Active
Activity (HeLa [22]): Active
Activity (HeLa [23]): 31.41%

Structure (SMILES): O=C(/C=C/c1ccc(/C=C/C(=O)c2cccc3c2C(=O)c2ccccc2C3=O)cc1)c1ccccc1F
IC50 (MRC5): 31.5 µM
IC50 (A549 [1]): 31.6 µM
IC50 (HeLa [2]): 2.66 µM
IC50 [3]: 17.8 µM

Structure (SMILES): O=C(/C=C/c1ccc(/C=C/C(=O)c2cccc3c2C(=O)c2ccccc2C3=O)cc1)c1ccc(F)cc1
IC50 (MRC5): 37 µM
IC50 (A549 [1]): 36.3 µM
IC50 (HeLa [2]): 2.62 µM
IC50 [3]: 10.6 µM

inhibition (Bos taurus [5]): Dose-dependent effect
Activity (Calf thymus DNA [6]): Active
Activity (Escherichia coli [8]): inactive
Activity (Bos taurus [15]): inactive
Imax (Bos taurus [19]): 61%
Kb (Calf thymus DNA [20]): 1.36 ×10³ /M
Structure (SMILES): Cc1ccccc1C(=O)/C=C/c1ccc(/C=C/C(=O)c2cccc3c2C(=O)c2ccccc2C3=O)cc1
IC50 (MRC5): 41.9 µM
Activity (A549 [4]): Active
Activity (HeLa [7]): 17.29%
Activity (A549 [9]): Active
IC50 (A549 [1]): 29.1 µM
IC50 (HeLa [2]): 2.36 µM
Activity (HeLa [10]): 5.56%
Activity (HeLa [11]): 36.75%
Activity (A549 [12]): inactive
Activity (HeLa [13]): Active
Activity (HeLa [14]): 38.76%
Activity (HeLa [16]): 24.44%
Activity (HeLa [17]): 7.89%
IC50 [3]: 3.13 µM
Activity (HeLa [18]): 31.12%
Activity (HeLa [21]): Active
Activity (HeLa [22]): Active
Activity (HeLa [23]): 32.79%

Structure (SMILES): COc1ccc(C(=O)/C=C/c2ccc(/C=C/C(=O)c3cccc4c3C(=O)c3ccccc3C4=O)cc2)cc1
IC50 (MRC5): 47.4 µM
IC50 (A549 [1]): 47.7 µM
IC50 (HeLa [2]): 4.96 µM
IC50 [3]: 34.1 µM

Structure (SMILES): Cc1ccc(C(=O)/C=C/c2ccc(/C=C/C(=O)c3cccc4c3C(=O)c3ccccc3C4=O)cc2)cc1
IC50 (MRC5): 38.5 µM
IC50 (A549 [1]): 24.2 µM
IC50 (HeLa [2]): 2.64 µM
IC50 [3]: 22.6 µM

Structure (SMILES): COc1ccccc1C(=O)/C=C/c1ccc(/C=C/C(=O)c2cccc3c2C(=O)c2ccccc2C3=O)cc1
IC50 (MRC5): 43.6 µM
IC50 (A549 [1]): 28.1 µM
IC50 (HeLa [2]): 2.7 µM
IC50 [3]: 10.8 µM

Structure (SMILES): COc1cccc(C(=O)/C=C/c2ccc(/C=C/C(=O)c3cccc4c3C(=O)c3ccccc3C4=O)cc2)c1
IC50 (MRC5): 46.5 µM
IC50 (A549 [1]): 30.9 µM
IC50 (HeLa [2]): 2.77 µM
IC50 [3]: 16.7 µM

Structure (SMILES): O=C(/C=C/c1ccccc1)c1cccc2c1C(=O)c1ccccc1C2=O
IC50 (MRC5): 46.4 µM
IC50 (A549 [1]): 35.5 µM
IC50 (HeLa [2]): 14.8 µM
IC50 [3]: 31.3 µM

Structure (SMILES): O=C(/C=C/c1ccc(Cl)cc1)c1cccc2c1C(=O)c1ccccc1C2=O
IC50 (MRC5): 52 µM
IC50 (A549 [1]): 35.3 µM
IC50 (HeLa [2]): 33.1 µM
IC50 [3]: 47.2 µM

Structure (SMILES): Cc1cccc(C(=O)/C=C/c2ccc(/C=C/C(=O)c3cccc4c3C(=O)c3ccccc3C4=O)cc2)c1
IC50 (MRC5): 52 µM
IC50 (A549 [1]): 33.7 µM
IC50 (HeLa [2]): 2.45 µM
IC50 [3]: 11.8 µM

Structure (SMILES): Cc1cccc(/C=C/C(=O)c2cccc3c2C(=O)c2ccccc2C3=O)c1
IC50 (MRC5): 33.7 µM
IC50 (A549 [1]): 33 µM
IC50 (HeLa [2]): 11.6 µM
IC50 [3]: 21.5 µM

Structure (SMILES): Cc1ccc(/C=C/C(=O)c2cccc3c2C(=O)c2ccccc2C3=O)cc1
IC50 (MRC5): 50.5 µM
IC50 (A549 [1]): 38.3 µM
IC50 (HeLa [2]): 34.1 µM
IC50 [3]: 48.2 µM

inhibition (Bos taurus [5]): Dose-dependent effect
Activity (Calf thymus DNA [6]): Active
Activity (Escherichia coli [8]): inactive
inhibition (Escherichia coli [24]): Active
Activity (Bos taurus [15]): inactive
inhibition (Escherichia coli [25]): inactive
Imax (Bos taurus [19]): 52%
Kb (Calf thymus DNA [20]): 2.65 ×10³ /M
Structure (SMILES): O=C(/C=C/c1ccc(/C=C/C(=O)c2cccc3c2C(=O)c2ccccc2C3=O)cc1)c1ccccc1
IC50 (MRC5): 33.6 µM
Activity (HeLa [7]): 17.06%
Activity (A549 [9]): Active
IC50 (A549 [1]): 26.2 µM
IC50 (HeLa [2]): 2.41 µM
Activity (HeLa [10]): 4.66%
Activity (HeLa [11]): 36.61%
Activity (A549 [12]): inactive
Activity (HeLa [13]): Active
Activity (HeLa [14]): 37.54%
Activity (HeLa [16]): 23.04%
Activity (HeLa [17]): 4.96%
IC50 [3]: 4.56 µM
Activity (HeLa [18]): 34.02%
Activity (HeLa [21]): Active
Activity (HeLa [22]): Active
Activity (HeLa [23]): 35.25%
